Read-outs that look alike come from different tables or passages of the source. Marks after values point to notes of the source that are not given here.
Assays:
[1] = for % Depletion: after 60 min (Eq. 1)
[2] = human liver microsomes; cited from earlier work
[3] = polar bear liver microsomes; cited from earlier work
[4] = for Depletion rate, slope, first-order kinetics / Depletion rate, slope, zero-order kinetics: linear regression
[5] = 2 μM; herring gull liver microsomes; cited from earlier work
[6] = cited from earlier work

What does the source list for `O=P(Oc1ccccc1)(Oc1ccccc1)Oc1ccccc1` [TPHP, triphenyl phosphate, reference compound]?
Mass of parent lower in the +S9 treatment compared to the unprocessed spike ([1]; 1 μM): 69–77%; Percentage of Initial Parent Administration (Mean ± Std Dev): parent compound ([1]; 1 μM, Abiotic Control): 94 ± 7%; % Depletion ([1]; 1 μM, Abiotic Control): 6%; Percentage of Initial Parent Administration (Mean ± Std Dev): parent compound ([1]; 1 μM, Heat-inactivated s9): 88 ± 2%; % Depletion ([1]; 1 μM, Heat-inactivated s9): 12%; Percentage of Initial Parent Administration (Mean ± Std Dev): parent compound ([1]; 1 μM, s9): 31 ± 2%; Percentage of Initial Parent Administration (Mean ± Std Dev): parent compound ([1]; 1 μM, s9 & glucuronidase): 31 ± 3%; % Depletion ([1]; 1 μM, s9 & glucuronidase): 69%; Percentage of Initial Parent Administration (Mean ± Std Dev): parent compound ([1]; 1 μM, s9 & sulfatase): 23 ± 1%; % Depletion ([1]; 1 μM, s9 & sulfatase): 77%; % Depletion ([1]; 1 μM, s9): 69%; Percentage of Initial Parent Administration (Mean ± Std Dev): parent compound ([1]; 1 μM, unprocessed spike): 100 ± 5%; Percentage of Initial Parent Administration (Mean ± Std Dev): Total ([1]; 1 μM, unprocessed spike, parents plus quantified metabolites): 100 ± 5%; Mass of parent lower in the +S9 treatment compared to the unprocessed spike ([1]; 10 μM): 32–37%; Percentage of Initial Parent Administration (Mean ± Std Dev): parent compound ([1]; 10 μM, Abiotic Control): 95 ± 1%; % Depletion ([1]; 10 μM, Abiotic Control): 5%; Percentage of Initial Parent Administration (Mean ± Std Dev): parent compound ([1]; 10 μM, Heat-inactivated s9): 94 ± 1%; % Depletion ([1]; 10 μM, Heat-inactivated s9): 6%; Percentage of Initial Parent Administration (Mean ± Std Dev): parent compound ([1]; 10 μM, s9): 68 ± 1%; Percentage of Initial Parent Administration (Mean ± Std Dev): parent compound ([1]; 10 μM, s9 & glucuronidase): 67 ± 1%; % Depletion ([1]; 10 μM, s9 & glucuronidase): 33%; Percentage of Initial Parent Administration (Mean ± Std Dev): parent compound ([1]; 10 μM, s9 & sulfatase): 63 ± 0.2%; % Depletion ([1]; 10 μM, s9 & sulfatase): 37%; % Depletion ([1]; 10 μM, s9): 32%; Percentage of Initial Parent Administration (Mean ± Std Dev): parent compound ([1]; 10 μM, unprocessed spike): 100 ± 1%; Initial parent depleted in the abiotic control group ([1]; both doses): 5–6%; Percentage of DPHP formation following incubation [2]: 22%; Percentage of DPHP formation following incubation [3]: 97%; Depletion rate ([4]; 1 μM dose): 24 pmol/min/mg; Depletion rate, slope, first-order kinetics ([4]; 1 μM dose): −0.032 ^* ln[nmol]/min/mg protein; Depletion rate, slope, zero-order kinetics ([4]; 1 μM dose): −0.024 nmol/min/mg protein; Depletion rate, slope, first-order kinetics ([4]; 10 μM dose): −0.0030 ln[nmol]/min/mg protein; Depletion rate, slope, zero-order kinetics ([4]; 10 μM dose): −0.032 nmol/min/mg protein; Depletion rate [5]: 22 pmol/min/mg; OH-TPHP glucuronide conjugates, share of the initial TPHP treatment [6]: 65%

Reference: publication PMC7508416 (Chemical research in toxicology, 2020)
